Tested on: 885724-159-R-J1-PDC complex spheroid viability
Assay: Anticancer human tumor 885724-159-R-J1-PDC patient-derived pancreatic adenocarcinoma cell line growth inhibition [GQUAD]
Conditions: for IC50: curve of first compound; for viability, T/C: stronger effect = lower value
Outline: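 Tumor cells were grown as complex spheroids with HUVEC endothelial cells and mesenchymal stem cells as stroma. G-quadruplex stabilizers were combined with targeted agents over half-log dilutions from near the clinical Cmax, or from 10 microM.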

[1] = second compound 0.0316 µM, first compound 0.0316 µM
[2] = second compound 0.0316 µM, first compound 0.1 µM
[3] = second compound 0.0316 µM, first compound 0.316 µM
[4] = second compound 0.0316 µM, first compound 1 µM
[5] = second compound 0.0316 µM, first compound 3.16 µM
[6] = second compound 0.0316 µM, first compound 10 µM
[7] = second compound 0.1 µM, first compound 0.0316 µM
[8] = second compound 0.1 µM, first compound 0.1 µM
[9] = second compound 0.1 µM, first compound 0.316 µM
[10] = second compound 0.1 µM, first compound 1 µM
[11] = second compound 0.1 µM, first compound 3.16 µM
[12] = second compound 0.1 µM, first compound 10 µM
[13] = second compound 0.316 µM, first compound 0.0316 µM
[14] = second compound 0.316 µM, first compound 0.1 µM
[15] = second compound 0.316 µM, first compound 0.316 µM
[16] = second compound 0.316 µM, first compound 1 µM
[17] = second compound 0.316 µM, first compound 3.16 µM
[18] = second compound 0.316 µM, first compound 10 µM
[19] = second compound 1 µM, first compound 0.0316 µM
[20] = second compound 1 µM, first compound 0.1 µM
[21] = second compound 1 µM, first compound 0.316 µM
[22] = second compound 1 µM, first compound 1 µM
[23] = second compound 1 µM, first compound 3.16 µM
[24] = second compound 1 µM, first compound 10 µM
[25] = second compound 3.16 µM, first compound 0.0316 µM
[26] = second compound 3.16 µM, first compound 0.1 µM
[27] = second compound 3.16 µM, first compound 0.316 µM
[28] = second compound 3.16 µM, first compound 1 µM
[29] = second compound 3.16 µM, first compound 3.16 µM
[30] = second compound 3.16 µM, first compound 10 µM
[31] = second compound 10 µM, first compound 0.0316 µM
[32] = second compound 10 µM, first compound 0.1 µM
[33] = second compound 10 µM, first compound 0.316 µM
[34] = second compound 10 µM, first compound 1 µM
[35] = second compound 10 µM, first compound 3.16 µM
[36] = second compound 10 µM, first compound 10 µM
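Also: spheroids exposed to agents for seven days before readout.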
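For viability, T/C in this document: percent of vehicle control viability where 100% = DMSO wells.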

In the case of `CC(=O)O[C@H]1C(=O)[C@@]2(C)[C@H]([C@H](OC(=O)c3ccccc3)[C@]3(O)C[C@H](OC(=O)[C@H](O)[C@@H](NC(=O)c4ccccc4)c4ccccc4)C(C)=C1C3(C)C)[C@]1(OC(C)=O)CO[C@@H]1C[C@@H]2O` + CN(C)c1ccc(Nc2c3ccc(NC(=O)CCN4CCCC4)cc3nc3cc(NC(=O)CCN4CCCC4)ccc23)cc1, the IC50 (second compound 0.0316 µM) is reported as > 10 µM, the IC50 (second compound 0.1 µM) is reported as > 10 µM and the IC50 (second compound 0.316 µM) is reported as > 10 µM. The IC50 (second compound 1 µM) was > 10 µM, the IC50 (second compound 3.16 µM) was > 10 µM and the IC50 (second compound 10 µM) was > 10 µM. For the same compound, the viability, T/C [1] was 92.9%, the viability, T/C [2] was 82.8% and the viability, T/C [3] was 81.8%. For the same compound, the viability, T/C [4] was 85.3%, the viability, T/C [5] was 88% and the viability, T/C [6] was 98.7%. For the same compound, the viability, T/C [7] was 94%, the viability, T/C [8] was 92.7% and the viability, T/C [9] was 82.3%. For the same compound, the viability, T/C [10] was 89.8%, the viability, T/C [11] was 83.9% and the viability, T/C [12] was 96.8%. The viability, T/C [13] was 81.7%, the viability, T/C [14] was 82.4% and the viability, T/C [15] was 83.8%. The viability, T/C [16] was 76.7%, the viability, T/C [17] was 85.5% and the viability, T/C [18] was 81.1%. For the same compound, the viability, T/C [19] was 77.4%, the viability, T/C [20] was 64.3% and the viability, T/C [21] was 78.6%. The viability, T/C [22] was 68%, the viability, T/C [23] was 84.4% and the viability, T/C [24] was 82.5%. The viability, T/C [25] was 77.9%, the viability, T/C [26] was 56.1% and the viability, T/C [27] was 63.6%. The viability, T/C [28] was 66.2%, the viability, T/C [29] was 66.6% and the viability, T/C [30] was 72.1%. For the same compound, the viability, T/C [31] was 66.4%, the viability, T/C [32] was 69.6% and the viability, T/C [33] was 65.4%. It also gave a viability, T/C [34] of 67.4%, a viability, T/C [35] of 69.6% and a viability, T/C [36] of 67.7%.
`CC(C)(O)C1CCC(Nc2ccc3ncc(-c4cccc(C(F)(F)F)c4)n3n2)CC1` (stereo unspecified) + CN(C)c1ccc(Nc2c3ccc(NC(=O)CCN4CCCC4)cc3nc3cc(NC(=O)CCN4CCCC4)ccc23)cc1 was tested, and the IC50 (second compound 0.0316 µM) was 2.73 µM, the IC50 (second compound 0.1 µM) was 3.14 µM and the IC50 (second compound 0.316 µM) was 1.88 µM. The IC50 (second compound 1 µM) was 1.62 µM, the IC50 (second compound 3.16 µM) was 0.764 µM and the IC50 (second compound 10 µM) was 1.19 µM. It also gave a viability, T/C [1] of 109%, a viability, T/C [2] of 98% and a viability, T/C [3] of 87%. The viability, T/C [4] was 70.5%, the viability, T/C [5] was 42.1% and the viability, T/C [6] was 41.2%. For the same compound, the viability, T/C [7] was 97.7%, the viability, T/C [8] was 92.8% and the viability, T/C [9] was 80.3%. For the same compound, the viability, T/C [10] was 71.2%, the viability, T/C [11] was 44.8% and the viability, T/C [12] was 44.1%. The viability, T/C [13] was 83.7%, the viability, T/C [14] was 84.2% and the viability, T/C [15] was 71.6%. The viability, T/C [16] was 64.1%, the viability, T/C [17] was 38% and the viability, T/C [18] was 35.7%. For the same compound, the viability, T/C [19] was 83.6%, the viability, T/C [20] was 67.9% and the viability, T/C [21] was 71.1%. It also gave a viability, T/C [22] of 62.3%, a viability, T/C [23] of 30.5% and a viability, T/C [24] of 35.6%. For the same compound, the viability, T/C [25] was 76.1%, the viability, T/C [26] was 75.6% and the viability, T/C [27] was 65.9%. It also gave a viability, T/C [28] of 44.5%, a viability, T/C [29] of 27.9% and a viability, T/C [30] of 19.3%. It also gave a viability, T/C [31] of 62%, a viability, T/C [32] of 63.5% and a viability, T/C [33] of 57.3%. For the same compound, the viability, T/C [34] was 55.7%, the viability, T/C [35] was 20.6% and the viability, T/C [36] was 7.17%.
`COc1cc(C2c3cc4c(cc3C(OC3OC5COC(C)OC5C(O)C3O)C3COC(=O)C23)OCO4)cc(OC)c1O` (stereo unspecified) + CN(C)c1ccc(Nc2c3ccc(NC(=O)CCN4CCCC4)cc3nc3cc(NC(=O)CCN4CCCC4)ccc23)cc1 was tested, and the IC50 (second compound 0.0316 µM) was > 10 µM, the IC50 (second compound 0.1 µM) was > 10 µM and the IC50 (second compound 0.316 µM) was > 10 µM. For the same compound, the IC50 (second compound 1 µM) was > 10 µM, the IC50 (second compound 3.16 µM) was > 10 µM and the IC50 (second compound 10 µM) was > 10 µM. For the same compound, the viability, T/C [1] was 94.3%, the viability, T/C [2] was 90.8% and the viability, T/C [3] was 84.4%. The viability, T/C [4] was 87.6%, the viability, T/C [5] was 73.3% and the viability, T/C [6] was 72.6%. For the same compound, the viability, T/C [7] was 114%, the viability, T/C [8] was 87.2% and the viability, T/C [9] was 83.2%. The viability, T/C [10] was 81.8%, the viability, T/C [11] was 80.6% and the viability, T/C [12] was 69.4%. The viability, T/C [13] was 104%, the viability, T/C [14] was 82.9% and the viability, T/C [15] was 90.8%. The viability, T/C [16] was 89.5%, the viability, T/C [17] was 76.3% and the viability, T/C [18] was 64.2%. The viability, T/C [19] was 91.6%, the viability, T/C [20] was 86.1% and the viability, T/C [21] was 70.4%. The viability, T/C [22] was 76.6%, the viability, T/C [23] was 76% and the viability, T/C [24] was 60.4%. For the same compound, the viability, T/C [25] was 73.1%, the viability, T/C [26] was 63.1% and the viability, T/C [27] was 69.5%. It also gave a viability, T/C [28] of 56.6%, a viability, T/C [29] of 63.4% and a viability, T/C [30] of 57.8%. For the same compound, the viability, T/C [31] was 73.4%, the viability, T/C [32] was 74% and the viability, T/C [33] was 68.2%. The viability, T/C [34] was 82.6%, the viability, T/C [35] was 71.4% and the viability, T/C [36] was 56.6%.

Reference: PubChem BioAssay AID2060502 (Molecular Pharmacology Branch, DTP, NCI, 2025)
